In PubChem BioAssay AID2060886 (Molecular Pharmacology Branch, DTP, NCI, 2025):

Tested on: 653999-131-R-J2-PDC complex spheroids, growth inhibition
Experiment: Anticancer human tumor 653999-131-R-J2-PDC patient-derived lung adenocarcinoma cell line growth inhibition [RAS]
Conditions: for IC50: curve of first compound; for viability, T/C: stronger effect = lower value
Summary of the method: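 Agents were tested in combination matrices in half-log decrements from a top concentration at or near clinical Cmax (10 microM if undetermined). Targets were multi-cell spheroids of tumour lines plus HUVEC and MSC stromal cells.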
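Note: spheroids exposed to the agents for seven days before the readout.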

CCc1c2c(nc3ccc(O)cc13)-c1cc3c(c(=O)n1C2)COC(=O)[C@]3(O)CC + CCn1c(-c2cccnc2C(C)OC)c2c3cc(ccc31)N1CCOC(CC(NC(=O)C(C(C)C)N(C)C(=O)C3(F)CCN(C(=O)C#CC(C)(C)N(C)C)CC3)C(=O)N3CCCC(N3)C(=O)OCC(C)(C)C2)C1
IC50 (second compound 0.000949 µM): 13.3 nM | IC50 (second compound 0.003 µM): 12.6 nM | IC50 (second compound 0.00949 µM): 14.8 nM | IC50 (second compound 0.03 µM): 10.6 nM | IC50 (second compound 0.0949 µM): 7.78 nM | IC50 (second compound 0.3 µM): 5.63 nM | viability, T/C (second compound 0.000949 µM, first compound 0.000949 µM): 92.6% | viability, T/C (second compound 0.000949 µM, first compound 0.003 µM): 84.4% | viability, T/C (second compound 0.000949 µM, first compound 0.00949 µM): 52% | viability, T/C (second compound 0.000949 µM, first compound 0.03 µM): 35.9% | viability, T/C (second compound 0.000949 µM, first compound 0.0949 µM): 30% | viability, T/C (second compound 0.000949 µM, first compound 0.3 µM): 16.7% | viability, T/C (second compound 0.003 µM, first compound 0.000949 µM): 86% | viability, T/C (second compound 0.003 µM, first compound 0.003 µM): 77.3% | viability, T/C (second compound 0.003 µM, first compound 0.00949 µM): 52.8% | viability, T/C (second compound 0.003 µM, first compound 0.03 µM): 35.9% | viability, T/C (second compound 0.003 µM, first compound 0.0949 µM): 28% | viability, T/C (second compound 0.003 µM, first compound 0.3 µM): 20.4% | viability, T/C (second compound 0.00949 µM, first compound 0.000949 µM): 104% | viability, T/C (second compound 0.00949 µM, first compound 0.003 µM): 84.1% | viability, T/C (second compound 0.00949 µM, first compound 0.00949 µM): 55.2% | viability, T/C (second compound 0.00949 µM, first compound 0.03 µM): 37.8% | viability, T/C (second compound 0.00949 µM, first compound 0.0949 µM): 28.7% | viability, T/C (second compound 0.00949 µM, first compound 0.3 µM): 17.3% | viability, T/C (second compound 0.03 µM, first compound 0.000949 µM): 91.8% | viability, T/C (second compound 0.03 µM, first compound 0.003 µM): 75.7% | viability, T/C (second compound 0.03 µM, first compound 0.00949 µM): 51.9% | viability, T/C (second compound 0.03 µM, first compound 0.03 µM): 31.4% | viability, T/C (second compound 0.03 µM, first compound 0.0949 µM): 22.3% | viability, T/C (second compound 0.03 µM, first compound 0.3 µM): 16.3% | viability, T/C (second compound 0.0949 µM, first compound 0.000949 µM): 90.6% | viability, T/C (second compound 0.0949 µM, first compound 0.003 µM): 66.4% | viability, T/C (second compound 0.0949 µM, first compound 0.00949 µM): 47.5% | viability, T/C (second compound 0.0949 µM, first compound 0.03 µM): 29.9% | viability, T/C (second compound 0.0949 µM, first compound 0.0949 µM): 19.3% | viability, T/C (second compound 0.0949 µM, first compound 0.3 µM): 12.4% | viability, T/C (second compound 0.3 µM, first compound 0.000949 µM): 81% | viability, T/C (second compound 0.3 µM, first compound 0.003 µM): 57.8% | viability, T/C (second compound 0.3 µM, first compound 0.00949 µM): 44.9% | viability, T/C (second compound 0.3 µM, first compound 0.03 µM): 26.3% | viability, T/C (second compound 0.3 µM, first compound 0.0949 µM): 17.6% | viability, T/C (second compound 0.3 µM, first compound 0.3 µM): 11.5%

CC1(O)CCCC1n1c(=O)c(C(F)F)cc2cnc(NC3CCN(S(C)(=O)=O)CC3)nc21 (stereo unspecified) + CCn1c(-c2cccnc2C(C)OC)c2c3cc(ccc31)N1CCOC(CC(NC(=O)C(C(C)C)N(C)C(=O)C3(F)CCN(C(=O)C#CC(C)(C)N(C)C)CC3)C(=O)N3CCCC(N3)C(=O)OCC(C)(C)C2)C1
IC50 (second compound 0.000949 µM): > 10000 nM | IC50 (second compound 0.003 µM): 6610 nM | IC50 (second compound 0.00949 µM): 6600 nM | IC50 (second compound 0.03 µM): > 10000 nM | IC50 (second compound 0.0949 µM): 6910 nM | IC50 (second compound 0.3 µM): 6620 nM | viability, T/C (second compound 0.000949 µM, first compound 0.0316 µM): 88.3% | viability, T/C (second compound 0.000949 µM, first compound 0.1 µM): 71.1% | viability, T/C (second compound 0.000949 µM, first compound 0.316 µM): 67.8% | viability, T/C (second compound 0.000949 µM, first compound 1 µM): 59.2% | viability, T/C (second compound 0.000949 µM, first compound 3.16 µM): 81.2% | viability, T/C (second compound 0.000949 µM, first compound 10 µM): 47.2% | viability, T/C (second compound 0.003 µM, first compound 0.0316 µM): 86.8% | viability, T/C (second compound 0.003 µM, first compound 0.1 µM): 71.4% | viability, T/C (second compound 0.003 µM, first compound 0.316 µM): 73.4% | viability, T/C (second compound 0.003 µM, first compound 1 µM): 62.5% | viability, T/C (second compound 0.003 µM, first compound 3.16 µM): 71.7% | viability, T/C (second compound 0.003 µM, first compound 10 µM): 39.6% | viability, T/C (second compound 0.00949 µM, first compound 0.0316 µM): 97.2% | viability, T/C (second compound 0.00949 µM, first compound 0.1 µM): 69.3% | viability, T/C (second compound 0.00949 µM, first compound 0.316 µM): 78.6% | viability, T/C (second compound 0.00949 µM, first compound 1 µM): 79.8% | viability, T/C (second compound 0.00949 µM, first compound 3.16 µM): 79.5% | viability, T/C (second compound 0.00949 µM, first compound 10 µM): 33.4% | viability, T/C (second compound 0.03 µM, first compound 0.0316 µM): 92.6% | viability, T/C (second compound 0.03 µM, first compound 0.1 µM): 62.1% | viability, T/C (second compound 0.03 µM, first compound 0.316 µM): 60.9% | viability, T/C (second compound 0.03 µM, first compound 1 µM): 63.8% | viability, T/C (second compound 0.03 µM, first compound 3.16 µM): 83.3% | viability, T/C (second compound 0.03 µM, first compound 10 µM): 42.5% | viability, T/C (second compound 0.0949 µM, first compound 0.0316 µM): 86.8% | viability, T/C (second compound 0.0949 µM, first compound 0.1 µM): 73.4% | viability, T/C (second compound 0.0949 µM, first compound 0.316 µM): 64.4% | viability, T/C (second compound 0.0949 µM, first compound 1 µM): 65.4% | viability, T/C (second compound 0.0949 µM, first compound 3.16 µM): 85.9% | viability, T/C (second compound 0.0949 µM, first compound 10 µM): 38.1% | viability, T/C (second compound 0.3 µM, first compound 0.0316 µM): 84.3% | viability, T/C (second compound 0.3 µM, first compound 0.1 µM): 62.3% | viability, T/C (second compound 0.3 µM, first compound 0.316 µM): 72% | viability, T/C (second compound 0.3 µM, first compound 1 µM): 68.9% | viability, T/C (second compound 0.3 µM, first compound 3.16 µM): 88.9% | viability, T/C (second compound 0.3 µM, first compound 10 µM): 36.1%

CCC(CC)c1cc(NC2CCC(N)C2)n2nccc2n1 (stereo unspecified) + C=CC(=O)N1CCN(c2nc(OCC3CCCN3C)nc3c(F)c(-c4nc(N)cc(C)c4C(F)(F)F)c(Cl)cc23)C(C)C1
IC50 (second compound 0.00316 µM): 2050 nM | IC50 (second compound 0.01 µM): 1970 nM | IC50 (second compound 0.0316 µM): 2030 nM | IC50 (second compound 0.1 µM): 2120 nM | IC50 (second compound 0.316 µM): 1910 nM | IC50 (second compound 1 µM): 2100 nM | viability, T/C (second compound 0.00316 µM, first compound 0.0316 µM): 107% | viability, T/C (second compound 0.00316 µM, first compound 0.1 µM): 109% | viability, T/C (second compound 0.00316 µM, first compound 0.316 µM): 95.5% | viability, T/C (second compound 0.00316 µM, first compound 1 µM): 101% | viability, T/C (second compound 0.00316 µM, first compound 3.16 µM): 16.5% | viability, T/C (second compound 0.00316 µM, first compound 10 µM): 21.7% | viability, T/C (second compound 0.01 µM, first compound 0.0316 µM): 91.2% | viability, T/C (second compound 0.01 µM, first compound 0.1 µM): 92.2% | viability, T/C (second compound 0.01 µM, first compound 0.316 µM): 104% | viability, T/C (second compound 0.01 µM, first compound 1 µM): 99% | viability, T/C (second compound 0.01 µM, first compound 3.16 µM): 16.9% | viability, T/C (second compound 0.01 µM, first compound 10 µM): 18.1% | viability, T/C (second compound 0.0316 µM, first compound 0.0316 µM): 93.3% | viability, T/C (second compound 0.0316 µM, first compound 0.1 µM): 117% | viability, T/C (second compound 0.0316 µM, first compound 0.316 µM): 87.4% | viability, T/C (second compound 0.0316 µM, first compound 1 µM): 94.3% | viability, T/C (second compound 0.0316 µM, first compound 3.16 µM): 18.2% | viability, T/C (second compound 0.0316 µM, first compound 10 µM): 26% | viability, T/C (second compound 0.1 µM, first compound 0.0316 µM): 99.9% | viability, T/C (second compound 0.1 µM, first compound 0.1 µM): 95.4% | viability, T/C (second compound 0.1 µM, first compound 0.316 µM): 112% | viability, T/C (second compound 0.1 µM, first compound 1 µM): 113% | viability, T/C (second compound 0.1 µM, first compound 3.16 µM): 16.1% | viability, T/C (second compound 0.1 µM, first compound 10 µM): 25.5% | viability, T/C (second compound 0.316 µM, first compound 0.0316 µM): 123% | viability, T/C (second compound 0.316 µM, first compound 0.1 µM): 100% | viability, T/C (second compound 0.316 µM, first compound 0.316 µM): 93.7% | viability, T/C (second compound 0.316 µM, first compound 1 µM): 89.4% | viability, T/C (second compound 0.316 µM, first compound 3.16 µM): 14.8% | viability, T/C (second compound 0.316 µM, first compound 10 µM): 23.8% | viability, T/C (second compound 1 µM, first compound 0.0316 µM): 114% | viability, T/C (second compound 1 µM, first compound 0.1 µM): 97.2% | viability, T/C (second compound 1 µM, first compound 0.316 µM): 111% | viability, T/C (second compound 1 µM, first compound 1 µM): 116% | viability, T/C (second compound 1 µM, first compound 3.16 µM): 13.8% | viability, T/C (second compound 1 µM, first compound 10 µM): 20.9%
